{"source": "patent EP0428272A2", "about": "“Trifluorobenzodiazepine compounds for use in therapy by intraoral administration” (Ellinwood, Everett Hews, priority 1989, dated 1991)", "key": {"[1]": {"experiment": "Pharmacokinetics in blood plasma after a single sublingual or per oral swallowed dose of quazepam 15 mg standard tablet", "type": "in vivo, volunteer adult humans", "details": "for Lag time / half-life / Tmax / Cmax / AUC / CL/F: mean ± SD; for half-life / Tmax / Cmax / AUC: human; for half-life: plasma, 15 mg; for Tmax: time to Cmax; for Cmax: quazepam peak plasma concentration; for AUC: quazepam, area under plasma concentration-time curve; for CL/F: quazepam clearance", "description": "Test results will now be described. Testing was carried out using volunteer adult humans. Standard tablets containing, as active ingredient, solely quazepam or solely halazepam, were used. Such tablets were intended by their manufacturers to be swallowed but dissolved adequately in the mouth to permit the intraoral testing. • Figure 1 is a graph illustrating the concentration of quazepam (Q) and N-desalkyl-2-oxoquazepam (DOQ) in the blood plasma over 96 hours following a single sublingual dose (SL) or per oral swallowed dose (PO) of quazepam in a 15 mg standard tablet. • Figure 2 is a graph illustrating the concentration of quazepam (Q) and N-desalkyl-2-oxoquazepam (DOQ) in the blood plasma over 210 hours following a single sublingual dose (SL) or per oral swallowed dose (PO) of quazepam in a 15 mg standard tablet. • Figure 3 is a graph of computer simulated concentration levels of quazepam and N-desalkyl-2-oxoquazepam in the blood following sublingual and oral swallowed doses of quazepam (15 mg standard tablet) once a day for a 15 day period illustrating the marked reduction in accumulated levels of desalkyloxoquazepam with sublingual dosing; • Figure 4 is a graph illustrating the concentration of halazepam (HZ) and N-desalkyl-3-hydroxy-halazepam (ND) in the blood over 96 hours following a single sublingual dose (SL) or per oral swallowed dose (PO) of halazepam in a 20 mg standard tablet. • Figure 5 is a graph illustrating the concentration of halazepam (HZ) and N-desalkyl-3-hydroxy-halazepam (ND) in the blood over 240 hours following a single sublingual dose (SL) or per oral swallowed (PO) of halazepam in a 20 mg standard tablet; and • Figure 6 is a flow chart of the method of the present invention.\nThis change in concentrations for the two compounds can be seen with reference to Figure 1 and Figure 2 of the drawings where the differences in the parent compound Q and the metabolite DOQ for both the oral and sublingual dosing is shown. In Figure 3, by use of standard mutliple Q dose simulations, the differences in accumulation of Q and DOQ for sublingual versus oral dosing over 15 days is shown. With chronic dosing it is readily apparent that after 15 days the DOQ level, following oral administration, has reached levels that are associated with the threshold for impairing ataxic and incoordination affects (especially if larger doses are given).\nIn Table 1 and Table 2, set forth below, the average pharmacokinetic parameters for both Q and DOQ for both oral and sublingual routes of administration are set forth: TABLE I"}, "[2]": {"experiment": "Concentration in blood after a single sublingual or per oral swallowed dose of halazepam 20 mg standard tablet", "type": "in vivo, volunteer adult humans", "details": "sublingual administration of halazepam versus oral", "description": "Test results will now be described. Testing was carried out using volunteer adult humans. Standard tablets containing, as active ingredient, solely quazepam or solely halazepam, were used. […]"}, "[3]": {"details": "quazepam in plasma, oral quazepam 15 mg"}, "[4]": {"details": "quazepam in plasma, sublingual quazepam 15 mg"}}, "note": "Read-outs that look alike come from different tables or passages of the source."}
{"compound": "O=C1CN=C(c2ccccc2F)c2cc(Cl)ccc2N1", "note": "[N-DESALKYL-2-OXOQUAZEPAM, N-desalkyl-2-oxoquazepam]", "values": [{"measurement": "Lag time", "setting": "[1]; metabolite N-desalkyl-2-oxoquazepam in plasma, oral quazepam 15 mg", "result": "0.66 ± 0.32", "unit": "h"}, {"measurement": "Lag time", "setting": "[1]; metabolite N-desalkyl-2-oxoquazepam in plasma, sublingual quazepam 15 mg", "result": "1.74 ± 0.86", "unit": "h"}, {"measurement": "DOQ level relative to oral quazepam administration levels", "setting": "[1]; sublingual dosing of quazepam versus oral", "result": "about one-half"}]}
{"compound": "O=C1Nc2ccc(Cl)cc2C(c2ccccc2)=NC1O", "note": "(stereo not shown) [N-dealkyl-hydroxy-halazepam, N-desalkyl-3-hydroxy-halazepam]", "values": [{"measurement": "level of metabolite N-dealkyl-hydroxy-halazepam", "setting": "[2]", "result": "reducing"}]}
{"compound": "O=C1CN=C(c2ccccc2)c2cc(Cl)ccc2N1CC(F)(F)F", "note": "[halazepam, 7-chloro-1,3 dihydro-5-phenyl-1-1-(2,2,2-trifluoroethyl)-2H-1,4-benzodiazepine-2-one]", "values": [{"measurement": "availability of halazepam", "setting": "[2]", "result": "significantly increased"}]}
{"compound": "Fc1ccccc1C1=NCC(=S)N(CC(F)(F)F)c2ccc(Cl)cc21", "note": "[quazepam, 7-chloro-1-(2,2,2-trifluorethyl)-5-(o-fluorophenyl)-1,3-dihydro-2H-1,4-benzodiazepine-2-thione]", "values": [{"measurement": "half-life", "setting": "[1]; quazepam in plasma, absorption half-life, sublingual quazepam 15 mg, read-out: t1/2 Ka (converted)", "result": "0.27 ± 0.1", "unit": "h"}, {"measurement": "half-life", "setting": "[1]; quazepam in plasma, rapid distribution half-life, sublingual quazepam 15 mg, read-out: t1/2 λ₁ (converted)", "result": "1.44 ± 0.45", "unit": "h"}, {"measurement": "half-life", "setting": "[1]; quazepam in plasma, terminal elimination half-life, sublingual quazepam 15 mg, read-out: t1/2 λ₂ (converted)", "result": "27.7 ± 7.18", "unit": "h"}, {"measurement": "half-life", "setting": "[1]; po, quazepam in plasma, absorption half-life, oral quazepam 15 mg, read-out: t1/2 Ka (converted)", "result": "0.77 ± 0.23", "unit": "h"}, {"measurement": "half-life", "setting": "[1]; po, quazepam in plasma, rapid distribution half-life, oral quazepam 15 mg, read-out: t1/2 λ₁ (converted)", "result": "1.73 ± 0.65", "unit": "h"}, {"measurement": "half-life", "setting": "[1]; po, quazepam in plasma, terminal elimination half-life, oral quazepam 15 mg, read-out: t1/2 λ₂ (converted)", "result": "24.6 ± 8.35", "unit": "h"}, {"measurement": "Tmax", "setting": "[1]; [3]", "result": "2.57 ± 1.69", "unit": "h"}, {"measurement": "Tmax", "setting": "[1]; [4]", "result": "0.78 ± 0.31", "unit": "h"}, {"measurement": "Cmax", "setting": "[1]; oral quazepam 15 mg", "result": "26.7 ± 6.83", "unit": "ng/mL"}, {"measurement": "Cmax", "setting": "[1]; sublingual quazepam 15 mg", "result": "42.4 ± 10.4", "unit": "ng/mL"}, {"measurement": "AUC", "setting": "[1]; oral quazepam 15 mg", "result": "473 ± 239", "unit": "ng·h/mL"}, {"measurement": "AUC", "setting": "[1]; sublingual quazepam 15 mg", "result": "1460 ± 299", "unit": "ng·h/mL"}, {"measurement": "CL/F", "setting": "[1]; oral quazepam 15 mg", "result": "37.56 ± 16.89", "unit": "h⁻¹"}, {"measurement": "CL/F", "setting": "[1]; sublingual quazepam 15 mg", "result": "8.78 ± 5.25", "unit": "h⁻¹"}, {"measurement": "Lag time", "setting": "[1]; [3]", "result": "0.52 ± 0.28", "unit": "h"}, {"measurement": "Lag time", "setting": "[1]; [4]", "result": "0.18 ± 0.05", "unit": "h"}, {"measurement": "increase of availability of quazepam", "setting": "[1]; sublingual dosing in contrast to oral dosing of quazepam", "result": "about 60%"}]}
